Test results from patent publication US20170312282A1, “TYROSINE KINASE INHIBITOR FORMULATIONS FOR THE TREATMENT OF MAST CELL-MEDIATED INFLAMMATORY DISEASES AND METHODS OF USE THEREOF” (The Board of Trustees of the Leland Stanford Junior …, priority 2016, published 2017).

Columns and labels:
[1] = system: FLT3, KIT, MET, RET, VEGFR2; settings: one bound for FLT3, KIT; cited from earlier work
[2] = system: DMM-induced OA; test: Systemic imatinib in DMM model of OA (Example 5); assay type: in vivo, mice; settings: 33 mg/kg/day or 100 mg/kg, orally twice-daily for 12 weeks starting one day after DMM surgery
[3] = system: ABL, KIT, PDGFRs, DDRs; settings: read-out: IC50 (nM/L), one bound for ABL; cited from earlier work
[4] = system: allergic rhinorrhea; settings: intranasal dosing; cited from earlier work
[5] = system: allergic rhinitis; settings: phase II clinical trial for allergic rhinitis; cited from earlier work
[6] = system: tie2, pdgfrs, ret, kit, B-RAF; settings: one bound for tie2, pdgfrs; cited from earlier work
[7] = system: VEGFRs, PDGFRs, B-RAF, MEK, ERK, c-FMS; settings: one bound for VEGFRs; cited from earlier work

COc1cc2nccc(Oc3ccc(NC(=O)C4(C(=O)Nc5ccc(F)cc5)CC4)cc3)c2cc1OC [Cabozatinib]
IC50 [1]: < 15 nM

Cc1ccc(NC(=O)c2ccc(CN3CCN(C)CC3)cc2)cc1Nc1nccc(-c2cccnc2)n1 [Imatinib]
development of DMM-induced OA (histological scores of cartilage damage, synovitis and osteophyte formation) [2]: prevented the development of DMM-induced OA

Oc1cccc(Nc2ncc(F)c(Nc3cccc(O)c3)n2)c1 [R112]
allergic rhinorrhea [4]: effectively improved allergic rhinorrhea | safety [4]: safe | efficacy versus placebo [5]: lack of efficacy versus placebo

CNC(=O)c1cc(Oc2ccc(NC(=O)Nc3ccc(Cl)c(C(F)(F)F)c3)cc2)ccn1 [Sorafenib]
IC50 [7]: < 100 nM
